Entries after “also recorded” stand apart in the source; their conditions may differ.
Legend:
[1] = system: hypothalamic cells of the apoaequorin-expressing mice; experiment: Intracellular calcium ion increase (aequorin luminescence), hypothalamus; format: cell-based, mouse; details: for increase of intracellular calcium concentration in hypothalamic cells (RLU per second): 1 μmol/L peptide, added at 25 seconds; for luminescence (intracellular calcium ion increase) in hypothalamus: peptide at final concentrations of 1 μmol/L and 5 μmol/L
Procedure: (§1) A hypothalamus, pituitary gland, kidney, heart, blood vessel, or a portion of brain tissue is collected from transgenic mice systemically expressing apoaequorin (WO02/010371) produced by introducing an apoaequorin gene expression vector into fertilized eggs. The obtained hypothalamus, pituitary gland, kidney, heart, blood vessel, or brain tissue is cut finely into pieces, suspended in a medium containing coelenterazine, and then incubated to incorporate coelenterazine into the cells to form aequorin (a complex of apoaequorin and coelenterazine). Since aequorin luminesces upon binding to intracellular calcium ions, the relative luminescence level in cells before and after addition of a medium containing the peptide or a pharmaceutically acceptable salt thereof is measured in a luminometer every second over time and is used as an indicator of intracellular calcium ion concentration. Increase in the relative luminescence level due to addition of the peptide or pharmaceutically acceptable salt thereof confirms that the peptide or pharmaceutically acceptable salt thereof has the activity to increase intracellular calcium ion concentration.
(§2) Whether Peptides 1 to 8 synthesized in Example 2 have the activity of increasing intracellular calcium ion concentration was investigated using the organs of transgenic mice introduced with the apoaequorin gene and systemically expressing apoaequorin (hereinafter referred to as apoaequorin-expressing mice). In apoaequorin-expressing mouse cells, light is emitted when apoaequorin binds to a calcium ion in the presence of the luminescent substrate coelenterazine and thus the intracellular calcium ion concentration can be monitored. Patent Document (WO02/010371) discloses the method for producing apoaequorin-expressing mice, method for evaluating biologically active substances that use biological samples derived from the mice, and experimental results of evaluating biologically active peptides using the mouse organs as shown below. […] Therefore, apoaequorin-expressing mice can be used in the evaluation of the physiological activities of novel peptides.
(§3) Apoaequorin-expressing mice were produced according to the method disclosed in Reference Example 4 of Patent Document (WO02/010371). The apoaequorin-expressing mice were sacrificed, individual organs including thymus, hypothalamus, spleen, bone, aorta, heart, kidney, adrenal gland, pancreas, pituitary gland, uterus, medulla oblongata, and spinal cord were removed; and each of the organs was cut into small cubes of approximately 1 to 2 mm^3. Next, in 5-mL tubes (Rohren-Tubes; manufactured by Sarstedt, No. 55.476), three portions of each of the prepared organs were added to 50 μL of a 10 μmol/L solution of coelenterazine (manufactured by Molecular Probes) dissolved in RPMI 1640 medium, and these were cultured at 37° C. for three hours. After culturing, RPMI 1640 medium was added, and then Peptides 1 to 5 dissolved in RPMI 1640 medium were added 25 seconds after the addition of RPMI 1640 until each peptide had final concentrations of 1 μmol/L and of 5 μmol/L, and the relative luminescence levels were measured every second immediately after the addition of RPMI 1640 medium by using a luminometer (AutoLumat LB953, manufactured by Berthold).

[2] = system: pituitary cells of the apoaequorin-expressing mice; experiment: Intracellular calcium ion increase (aequorin luminescence), pituitary gland; format: cell-based, mouse; details: for increase of intracellular calcium concentration in pituitary cells (RLU per second): added at 25 seconds; for luminescence (intracellular calcium ion increase) in pituitary gland: peptide at final concentrations of 1 μmol/L and 5 μmol/L
Procedure: as §1, §2, §3

[3] = system: pancreatic cells of the apoaequorin-expressing mice; experiment: Intracellular calcium ion increase (aequorin luminescence), pancreas; format: cell-based, mouse; details: for luminescence (intracellular calcium ion increase) in pancreas: peptide at final concentrations of 1 μmol/L and 5 μmol/L
Procedure: as §1
Whether Peptides 1 to 8 synthesized in Example 2 have the activity of increasing intracellular calcium ion concentration was investigated using the organs of transgenic mice introduced with the apoaequorin gene and systemically expressing apoaequorin (hereinafter referred to as apoaequorin-expressing mice). In apoaequorin-expressing mouse cells, light is emitted when apoaequorin binds to a calcium ion in the presence of the luminescent substrate coelenterazine and thus the intracellular calcium ion concentration can be monitored. Patent Document (WO02/010371) discloses the method for producing apoaequorin-expressing mice, method for evaluating biologically active substances that use biological samples derived from the mice, and experimental results of evaluating biologically active peptides using the mouse organs as shown below. […]

[4] = system: nerve endings in the posterior pituitary gland of AVP-eGFP Tg rats; experiment: Continuous measurement of AVP-eGFP fluorescence in rat posterior pituitary gland (vasopressin release); format: cell-based; details: peptide at final concentration of 10^−6 M in perfusate, last five minutes; control (basal) taken as 1
Excerpt: In transgenic (Tg) rats produced using a fusion gene, which is a vasopressin (arginine vasopressin: AVP) gene inserted with the enhanced green fluorescent protein (eGFP) gene, eGFP is expressed specifically in AVP neurons of the hypothalamus-pituitary system and their axons (Ueta et al., Endocrinology, 146, 406-413, 2005). Vasopressin secretion-promoting activity can be measured using pituitary gland excised from such AVP-eGFP Tg rats.
The pituitary gland is excised from an AVP-eGFP Tg rat and placed in a chamber of a perfusion apparatus filled with perfusate (140 mM NaCl, 5 mM KCl, 10 mM HEPES, 10 mM glucose, 1.2 mM KH2PO4, 1.2 mM MgCl2, 2 mM CaCl2; the pH and osmotic pressure are adjusted to 7.37 and 295 to 300 mOsml, respectively). Laser beam (488 nm) from an excitation light irradiation device (^161C; manufactured by Spectra Physics), is irradiated onto the posterior pituitary gland through an optical fiber (GIF625-100; manufactured by Thorlabs). The eGFP fluorescent light as a result of excitation at nerve endings in the posterior pituitary gland is collected by a phototube (R6249HA; Hamamatsu Photonics) through another optical fiber. After conversion into an electric signal, it can be amplified with an amplifier (C7246; manufactured by Hamamatsu Photonics) to observe the change in the eGFP fluorescence. The amount of change serves as an indicator for the amount of change of AVP-eGFP present in the pituitary gland, and the vasopressin secretion-promoting activity of the VGF-related peptide or a pharmaceutically acceptable salt thereof can be measured.
Specifically, the recording time is set to 10 minutes. As a control (basal), only the perfusate is administered in the first five minutes. Then, a mixture of the perfusate and the VGF-related peptide or a pharmaceutically acceptable salt thereof prepared to have a final concentration of 10^−6 M is administered in the last five minutes. The amount of vasopressin secreted from the pituitary gland can be measured by observing changes in the eGFP fluorescence. […]

[5] = system: cardiac cells of the apoaequorin-expressing mice; experiment: Intracellular calcium ion increase (aequorin luminescence), heart; format: cell-based, mouse
Procedure: as §1, §2, §3

[6] = system: spleen of apoaequorin-expressing mice; experiment: Intracellular calcium ion increase (aequorin luminescence), spleen; format: cell-based, mouse; details: peptide at final concentrations of 1 μmol/L and 5 μmol/L
Procedure: as §1, §2
(§4) Apoaequorin-expressing mice were produced according to the method disclosed in Reference Example 4 of Patent Document (WO02/010371). […] After culturing, RPMI 1640 medium was added, and then Peptides 1 to 5 dissolved in RPMI 1640 medium were added 25 seconds after the addition of RPMI 1640 until each peptide had final concentrations of 1 μmol/L and of 5 μmol/L, and the relative luminescence levels were measured every second immediately after the addition of RPMI 1640 medium by using a luminometer (AutoLumat LB953, manufactured by Berthold).

[7] = system: aortic cells of the apoaequorin-expressing mice; experiment: Intracellular calcium ion increase (aequorin luminescence), aorta; format: cell-based, mouse
Procedure: as §1, §2, §4

[8] = system: thymus of apoaequorin-expressing mice; experiment: Intracellular calcium ion increase (aequorin luminescence), thymus; format: cell-based, mouse; details: peptide at final concentrations of 1 μmol/L and 5 μmol/L
Procedure: as §1, §2, §4

[9] = system: medulla oblongata of apoaequorin-expressing mice; experiment: Intracellular calcium ion increase (aequorin luminescence), medulla oblongata; format: cell-based, mouse; details: peptide at final concentrations of 1 μmol/L and 5 μmol/L
Procedure: as §1, §2, §3

[10] = 1 μmol/L peptide, added at 25 seconds
[11] = peptide at final concentrations of 1 μmol/L and 5 μmol/L

Substance	increase of intracellular calcium concentration in hypothalamic cells (RLU per second) [1]	luminescence (intracellular calcium ion increase) in hypothalamus [1]	increase of intracellular calcium concentration in pituitary cells (RLU per second) ([2]; 1 μmol/L peptide)	luminescence (intracellular calcium ion increase) in pituitary gland [2]	luminescence (intracellular calcium ion increase) in pancreas [3]	increase of intracellular calcium concentration in pancreatic cells (RLU per second) ([3]; 5 μmol/L peptide, added at 25 seconds)	increase of intracellular calcium concentration in pituitary cells (RLU per second) ([2]; 5 μmol/L peptide)	vasopressin release from nerve endings in the posterior pituitary gland (change in eGFP fluorescence) [4]	increase of intracellular calcium concentration in cardiac cells (RLU per second) [5, 10]	luminescence (intracellular calcium ion increase) in heart [5, 11]	luminescence (intracellular calcium ion increase) in spleen [6]	increase of intracellular calcium concentration in aortic cells (RLU per second) [7, 10]	luminescence (intracellular calcium ion increase) in aorta [7, 11]	luminescence (intracellular calcium ion increase) in thymus [8]	luminescence (intracellular calcium ion increase) in medulla oblongata [9]
Peptide 4: amino acid sequence at position 533 to 543 in human VGF (EEDEVYPPGPY; synthetic Peptide 4, VGF-related peptide, human VGF positions 533-543)	increase of intracellular calcium concentration	luminescence was observed	increase of intracellular calcium concentration	luminescence was observed	luminescence was observed										
Peptide 10: amino acid sequence at position 485 to 503 in human VGF (NAPPEPVPPPRAAPAPTHV; synthetic Peptide 10, VGF-related peptide, human VGF positions 485-503)	increase of intracellular calcium concentration	luminescence was observed	increase of intracellular calcium concentration	luminescence was observed	luminescence was observed	increase of intracellular calcium concentration									
Peptide 12: amino acid sequence at position 556 to 585 in rat VGF (TLQPPASSRRRHFHHALPPARHHPDLEAQA; synthetic Peptide 12, VGF-related peptide, rat VGF positions 556-585)				luminescence was observed			increase of intracellular calcium concentration	reduced eGFP fluorescence; also recorded: vasopressin release							
Peptide 11: amino acid sequence at position 533 to 552 in human VGF (EEDEVYPPGPYHPFPNYIRP; synthetic Peptide 11, VGF-related peptide, human VGF positions 533-552)	increase of intracellular calcium concentration	luminescence was observed		luminescence was observed			increase of intracellular calcium concentration	reduced eGFP fluorescence; also recorded: vasopressin release							
Peptide 7: amino acid sequence at position 400 to 417 in human VGF (QNALLFAEEEDGEAGAED; synthetic Peptide 7, VGF-related peptide, human VGF positions 400-417)	increase of intracellular calcium concentration	luminescence was observed	increase of intracellular calcium concentration	luminescence was observed					increase of intracellular calcium concentration	luminescence was observed	luminescence was observed	increase of intracellular calcium concentration	luminescence was observed		
Peptide 1: amino acid sequence at position 177 to 206 in human VGF (QQETAAAETETRTHTLTRVNLESPGPERVW; synthetic Peptide 1, VGF-related peptide, human VGF positions 177-206)	increase of intracellular calcium concentration	luminescence was observed		luminescence was observed			increase of intracellular calcium concentration	reduced eGFP fluorescence; also recorded: vasopressin release						luminescence was observed	luminescence was observed

Reference: patent US20100075343A1, “NOVEL PEPTIDES” (priority 2007, published 2010)
